Data reported in paper PMC11311998, “AR71, Histamine H3 Receptor Ligand—In Vitro and In Vivo Evaluation (Anti-Inflammatory Activity, Metabolic Stability, Toxicity, and Analgesic Action)” (International Journal of Molecular Sciences, 2024).
“And” between values parts separate entries of the source, which are not always exact repeats. Identical values can stand only once. Like-named read-outs stand apart in the source and are kept apart here.

Legend:
[1] = system: human peripheral blood mononuclear cells (PBMCs); experiment: PBMC viability (resazurin reduction assay); assay type: cell-based; settings: for IC50: Homo sapiens, PBMC, read-out: IC50 PBM Cells
Description: PBMCs were isolated from a leucocyte-buffy coat collected from the blood of healthy non-smoking donors from the Blood Bank in Lodz, Poland. They included lymphocytes, monocytes, and other white blood cells with a round nucleus. A portion of the leucocyte-buffy coat was diluted in 1% phosphate buffer saline (PBS). Then, it was centrifuged in a density gradient of Lymphosep (Cytogen, Zgierz, Poland) at 200× g for 20 min at room temperature. Next, the cells were collected and washed thrice in 1% PBS. The supernatant was poured off, and the pellet of the cells was resuspended in RPMI 1640 medium (Lonza, Basel, Switzerland). The study protocol was approved by the Committee for Research on Human Subjects of the University of Lodz, Poland (17/KBBN-UŁ/III/2019).
The resazurin reduction assay was performed similarly to that previously described by O’Brien et al.. Resazurin salt powder was dissolved in sterile PBS. The cells were seeded on 96-well plates in 5 × 10^4 for PBMCs per well. AR71 was added to the wells to achieve final concentrations of 0.78, 1.56, 3.125, 6.25, 12.5, 25, 50, and 100 µM. In the next step, the plates were incubated at 37 °C in 5% CO2 for 2 h, 24 h, 48 h, and 72 h. Then, 10 µL of resazurin salt was added to each well, and the plates were incubated again at 37 °C in 5% CO2 for 2 h. Next, fluorescence was measured with microplate reader BioTek Synergy HT (Agilent Technologies, Inc., Santa Clara, CA, USA) using an excitation wavelength of 530/25 nm and an emission wavelength of 590/35 nm.
The viability of PBMCs was estimated after 2, 24, 48, and 72 h of incubation with AR71. The viability of individual samples was calculated relative to the negative control (NC, untreated cells), which was taken as 100%. The positive control was PBMCs incubated with 0.1% DMSO (vehicle, Veh). The results represented the means with SEMs of six independent experiments and were expressed as a percentage of untreated control cells. The values were plotted against all used concentrations of AR71 to calculate the viability inhibition concentration at 50% (IC50) using GraphPad Prism 6.07 (GraphPad Software, Inc., San Diego, CA, USA).

[2] = molecular target: hH4R; design: method as in PMID 36370200; settings: cited from earlier work
[3] = metabolic stability in human liver microsomes; assay type: in vitro ADME
Description: The metabolic stability of AR71 was assessed in vitro using human liver microsomes (HLMs). […] After 120 min of incubation with HLMs, 85% of AR71 remained unchanged. However, during this time, six metabolites were formed (Figure S4a–d, Supplementary Materials). The metabolite M1 was formed in the highest amount (5.5%). The others were formed in amounts of 0.6% to 1.2%. Based on an analysis of their molar masses, and with the help of MetaSite 6.0.1, a type of metabolic transformation was proposed. The identified in vitro AR71 metabolic pathways and the most probable site of metabolism predicted by MetaSite 6.0.1 are shown in Table 1.
Metabolic stability was assessed in human liver microsomes (HLMs, Sigma-Aldrich, St. Louis, MO, USA), as previously described. After 120 min of incubation with HLMs, liquid chromatography–mass spectrometry (Waters ACQUITY TQD system with the TQ Detector, Waters, Milford, MA, USA) was used to identify the formed metabolites. MetaSite 6.0.1 software (Molecular Discovery Ltd., Hertfordshire, U.K.) was used to predict the most probable sites of metabolism in silico.

[4] = system: CCI-exposed mice; experiment: CCI neuropathic pain model, all behavioural tests and observation; assay type: in vivo, mouse
Description: The effects of a single intraperitoneal (i.p.) injection of AR71 at doses of 5, 10, and 20 mg/kg on mechanical (von Frey test) and thermal (cold plate and tail flick tests) stimulus were evaluated on day 14 following sciatic nerve injury (Figure 15). There were seven to eight animals per group. All these tests were performed in three time series after the administration of the compound. In the case of the von Frey test—after 30, 90, and 180 min; the cold plate test—after 35, 95, and 185 min; and the tail flick test—after 40, 100, and 190 min.
The mice were randomly divided into four experimental groups. One group received a vehicle treatment (10% DMSO/10%(2-Hydroxypropyl)-β-cyclodextrin/water for injection, i.p.), while the other three groups were administered with AR71 at doses of 5, 10, or 20 mg/kg of body weight (b.w.), i.p. Baseline measurements for all tests were conducted before the compounds were injected, and the results are presented as percentages of the maximal possible effect (% MPE). […] All data from behavioural tests were analysed using a one-way ANOVA with Bonferroni’s multiple comparison post hoc test.
Assessment of the analgesic activity of AR71 was performed using a mouse experimental model of chronic constriction injury of the sciatic nerve, by three tests including the von Frey test, the cold plate test, and the tail flick test. […]

[5] = system: BV-2 cells; design: method as in PMID 36370200; settings: LPS-treated BV-2 cells; cited from earlier work

In the case of `COc1cc(/C=C/C(=O)c2ccc(OCCCN3CCCCC3)cc2)cc(OC)c1OC` [AR71, (E)-3-(3,4,5-trimethoxyphenyl)-1-(4-(3-(piperidin-1-yl)propoxy)phenyl)prop-2-en-1-one], the “decrease in the number of PBMCs” value ([1]; 100 µM, regardless of incubation time (2-72 h)) is reported as 80–98%, the “cytotoxic effect on PBMCs” value ([1]; 0.78, 1.56 and 3.125 µM, 2 h) is reported as “did not cause a cytotoxic effect” and the “decrease in the number of PBMCs” value ([1]; 6.25–50 µM, 2 h) is reported as ≤ 20%. It also gave an IC50 ([1]; 2 h incubation) of 71 µM, an IC50 ([1]; 24 h incubation) of 21 µM and an IC50 ([1]; 48 h incubation) of 7.48 µM. The IC50 ([1]; 72 h incubation) was 4.53 µM, the Ki [2] was 2.81 µM and > 2.5 µM and the “number of metabolites formed” value ([3]; 120 min incubation with HLMs) was “six”. For the same compound, the “parent compound remaining unchanged” value ([3]; 120 min incubation with HLMs) was 85%, the “parent compound remaining unchanged” value ([3]; 120 min incubation with HLMs, listed as AR-71) was 85.40% and the “metabolic stability” value ([3]; HLMs) was “rather metabolically stable”. For the same compound, the “sedative, locomotor or gastrointestinal effects” value ([4]; 5, 10, 20 mg/kg i.p.) was “no sedative, locomotor, or gastrointestinal effects”, the “dose with the highest analgesic effects” value ([4]; single i.p. injection, doses 5, 10, 20 mg/kg, day 14 after CCI) was 20 mg/kg and the “effect on proinflammatory cytokines (IL-1β, IL-6, TNF-α), mRNA and protein level” value [5] was “reduced the level of proinflammatory cytokines”.
